Results published in the NIST ThermoML archive (doi:10.1021/je0501078).
Numbers after ± are expanded uncertainties.

Assay: molar heat capacity at saturation pressure

O=C1CCCCC1C1(O)CCCCC1 (stereo unspecified) [1'-hydroxy-[1,1'-bicyclohexyl]-2-one]
Conditions | molar heat capacity [J/K/mol]
5.16 K, Crystal | 0.533 ± 0.046
5.41 K, Crystal | 0.6159 ± 0.049
5.68 K, Crystal | 0.7141 ± 0.051
5.97 K, Crystal | 0.8182 ± 0.054
6.29 K, Crystal | 0.9686 ± 0.057
6.62 K, Crystal | 1.137 ± 0.062
6.94 K, Crystal | 1.337 ± 0.067
7.27 K, Crystal | 1.564 ± 0.073
7.69 K, Crystal | 1.849 ± 0.08
8.09 K, Crystal | 2.166 ± 0.087
8.51 K, Crystal | 2.524 ± 0.096
8.97 K, Crystal | 2.903 ± 0.1
9.4 K, Crystal | 3.307 ± 0.11
9.86 K, Crystal | 3.764 ± 0.12
10.32 K, Crystal | 4.247 ± 0.14
10.8 K, Crystal | 4.745 ± 0.14
11.34 K, Crystal | 5.386 ± 0.16
11.91 K, Crystal | 6.078 ± 0.17
12.5 K, Crystal | 6.783 ± 0.18
13.09 K, Crystal | 7.518 ± 0.2
13.65 K, Crystal | 8.27 ± 0.21
14.26 K, Crystal | 9.088 ± 0.22
14.87 K, Crystal | 9.894 ± 0.24
15.47 K, Crystal | 10.71 ± 0.25
16.12 K, Crystal | 11.66 ± 0.27
16.79 K, Crystal | 12.66 ± 0.28
17.47 K, Crystal | 13.66 ± 0.29
18.17 K, Crystal | 14.72 ± 0.31
18.86 K, Crystal | 15.8 ± 0.32
19.61 K, Crystal | 16.87 ± 0.33
20.52 K, Crystal | 18.24 ± 0.34
21.52 K, Crystal | 19.81 ± 0.36
22.54 K, Crystal | 21.36 ± 0.37
23.56 K, Crystal | 22.97 ± 0.37
24.68 K, Crystal | 24.67 ± 0.38
25.89 K, Crystal | 26.58 ± 0.39
27.12 K, Crystal | 28.34 ± 0.38
28.37 K, Crystal | 30.15 ± 0.38
29.78 K, Crystal | 32.21 ± 0.37
31.31 K, Crystal | 34.26 ± 0.34
32.81 K, Crystal | 36.25 ± 0.35
34.25 K, Crystal | 38.29 ± 0.37
35.69 K, Crystal | 40.02 ± 0.37
37.25 K, Crystal | 42.05 ± 0.39
38.95 K, Crystal | 44.28 ± 0.41
40.79 K, Crystal | 46.36 ± 0.42
42.67 K, Crystal | 48.72 ± 0.43
44.41 K, Crystal | 50.59 ± 0.45
46.25 K, Crystal | 52.77 ± 0.47
48.19 K, Crystal | 54.67 ± 0.47
50.08 K, Crystal | 56.63 ± 0.49
51.93 K, Crystal | 58.46 ± 0.5
53.83 K, Crystal | 60.66 ± 0.52
55.82 K, Crystal | 62.66 ± 0.53
57.81 K, Crystal | 64.39 ± 0.54
59.76 K, Crystal | 66.21 ± 0.56
61.73 K, Crystal | 68.03 ± 0.56
63.72 K, Crystal | 69.96 ± 0.58
65.71 K, Crystal | 71.5 ± 0.59
67.67 K, Crystal | 73.51 ± 0.61
69.76 K, Crystal | 75.35 ± 0.61
72.08 K, Crystal | 77.34 ± 0.63
74.55 K, Crystal | 79.53 ± 0.65
76.99 K, Crystal | 81.52 ± 0.66
79.43 K, Crystal | 83.56 ± 0.67
81.9 K, Crystal | 85.64 ± 0.67
84.37 K, Crystal | 87.8 ± 0.67
86.86 K, Crystal | 89.8 ± 0.75
89.34 K, Crystal | 92.04 ± 0.75
91.79 K, Crystal | 93.87 ± 0.92
94.27 K, Crystal | 96.03 ± 0.92
96.74 K, Crystal | 97.94 ± 0.92
99.23 K, Crystal | 100.3 ± 0.92
99.86 K, Crystal | 100.6 ± 0.92
101.72 K, Crystal | 102.1 ± 0.92
101.89 K, Crystal | 102.2 ± 0.92
103.96 K, Crystal | 103.9 ± 0.92
104.22 K, Crystal | 104.1 ± 1
106 K, Crystal | 105.5 ± 1
108.09 K, Crystal | 107.2 ± 1
110.22 K, Crystal | 108.8 ± 1
112.32 K, Crystal | 110.3 ± 1
114.47 K, Crystal | 112.2 ± 1
116.67 K, Crystal | 113.7 ± 1
118.84 K, Crystal | 115.6 ± 1
120.97 K, Crystal | 117 ± 1
123.07 K, Crystal | 118.7 ± 1
125.14 K, Crystal | 120.4 ± 1
127.19 K, Crystal | 122.1 ± 1
129.21 K, Crystal | 123.6 ± 1.1
131.21 K, Crystal | 125.2 ± 1.1
133.17 K, Crystal | 126.7 ± 1.1
135.12 K, Crystal | 128.2 ± 1.1
137.05 K, Crystal | 129.6 ± 1.1
138.96 K, Crystal | 131.3 ± 1.1
141 K, Crystal | 132.8 ± 1.1
143.17 K, Crystal | 134.4 ± 1.1
145.31 K, Crystal | 136.2 ± 1.1
147.42 K, Crystal | 137.7 ± 1.1
149.52 K, Crystal | 139.4 ± 1.1
149.69 K, Crystal | 139.5 ± 1.1
151.77 K, Crystal | 141.3 ± 1.1
153.83 K, Crystal | 142.8 ± 1.2
155.94 K, Crystal | 144.7 ± 1.2
158.11 K, Crystal | 146.2 ± 1.2
160.26 K, Crystal | 148.1 ± 1.2
162.4 K, Crystal | 149.6 ± 1.2
164.58 K, Crystal | 151.5 ± 1.2
166.82 K, Crystal | 153.1 ± 1.2
169.05 K, Crystal | 154.8 ± 1.2
171.25 K, Crystal | 156.7 ± 1.2
173.43 K, Crystal | 158.6 ± 1.2
175.59 K, Crystal | 160.1 ± 1.2
177.74 K, Crystal | 162 ± 1.2
179.87 K, Crystal | 163.8 ± 1.2
181.98 K, Crystal | 165.4 ± 1.2
184.22 K, Crystal | 167.4 ± 1.2
186.58 K, Crystal | 169.1 ± 1.2
188.92 K, Crystal | 171.2 ± 1.2
191.24 K, Crystal | 172.9 ± 1.2
193.62 K, Crystal | 174.9 ± 1.2
196.06 K, Crystal | 176.6 ± 1.2
198.49 K, Crystal | 179 ± 1.3
200.89 K, Crystal | 180.8 ± 1.3
203.28 K, Crystal | 182.7 ± 1.3
205.65 K, Crystal | 184.8 ± 1.3
208.08 K, Crystal | 186.7 ± 1.3
210.57 K, Crystal | 188.6 ± 1.3
213.04 K, Crystal | 191 ± 1.3
215.63 K, Crystal | 192.9 ± 1.3
218.36 K, Crystal | 195.1 ± 1.3
220.54 K, Crystal | 197.1 ± 1.4
223.28 K, Crystal | 199.4 ± 1.4
226 K, Crystal | 201.5 ± 1.4
228.71 K, Crystal | 203.8 ± 1.4
231.37 K, Crystal | 206.2 ± 1.4
234.03 K, Crystal | 209.2 ± 1.4
236.67 K, Crystal | 210.8 ± 1.4
239.45 K, Crystal | 214 ± 1.4
242.37 K, Crystal | 216.3 ± 1.5
245.3 K, Crystal | 218.9 ± 1.5
248.2 K, Crystal | 221.7 ± 1.5
251.09 K, Crystal | 224 ± 1.5
253.97 K, Crystal | 227.2 ± 1.5
256.81 K, Crystal | 229.6 ± 1.5
259.61 K, Crystal | 232.7 ± 1.6
262.37 K, Crystal | 235.2 ± 1.6
265.1 K, Crystal | 238.8 ± 1.6
267.8 K, Crystal | 241.5 ± 1.6
270.46 K, Crystal | 244.1 ± 1.6
273.22 K, Crystal | 247.9 ± 1.6
274.83 K, Crystal | 249.2 ± 1.6
276.1 K, Crystal | 250.8 ± 1.7
277.41 K, Crystal | 252.4 ± 1.7
278.95 K, Crystal | 254.3 ± 1.7
279.97 K, Crystal | 255.8 ± 1.7
281.77 K, Crystal | 257.8 ± 1.7
282.51 K, Crystal | 258.4 ± 1.7
284.57 K, Crystal | 261.4 ± 1.7
285.02 K, Crystal | 262 ± 1.7
287.35 K, Crystal | 264.2 ± 1.7
287.51 K, Crystal | 264.9 ± 1.7
289.97 K, Crystal | 267.6 ± 1.7
290.11 K, Crystal | 268.6 ± 1.7
292.4 K, Crystal | 271.5 ± 1.7
292.83 K, Crystal | 271.4 ± 1.7
294.18 K, Crystal | 273.5 ± 1.7
295.66 K, Crystal | 275.3 ± 1.7
308.34 K, Liquid | 351 ± 2.1
310.04 K, Liquid | 351.5 ± 2.1
311.73 K, Liquid | 353.4 ± 2.1
